{"source": "ChEMBL document CHEMBL5316325", "about": "“Design and Synthesis of 3-Hydroxy-pyridin-4(1H)-ones-Ciprofloxacin Conjugates as Dual Antibacterial and Antibiofilm Agents against Pseudomonas aeruginosa” (J Med Chem, 2023)", "key": {"Pseudomonas aeruginosa [1]": {"system": "Pseudomonas aeruginosa", "assay": "Antibiofilm activity against Pseudomonas aeruginosa PAO1 in ABTGC medium assessed as biofilm biomass at MIC incubated for 24 hrs in presence of 10 uM Fe by crystal violet staining based assay relative to control", "assay_type": "functional"}, "Pseudomonas aeruginosa [2]": {"system": "Pseudomonas aeruginosa", "assay": "Antibiofilm activity against Pseudomonas aeruginosa PAO1 assessed as biofilm eradication at high concentration incubated for 36 hrs by crystal violet staining based assay", "assay_type": "functional, organism-based"}, "[3]": {"assay": "Toxicity in Caenorhabditis elegans assessed as survival rate at 50 to 100 uM measured after 48 hrs by bright field microscopy", "details": "dose 50-100 µM"}, "Pseudomonas aeruginosa [4]": {"system": "Pseudomonas aeruginosa", "assay": "Antibiofilm activity against Pseudomonas aeruginosa PAO1 in ABTGC medium assessed as biofilm biomass at MIC incubated for 24 hrs by crystal violet staining based assay relative to control", "assay_type": "functional"}, "Pseudomonas aeruginosa [5]": {"system": "Pseudomonas aeruginosa", "assay": "Antibiofilm activity against Pseudomonas aeruginosa PAO1 assessed as biofilm eradication at 4 times MIC incubated for 24 hrs by crystal violet staining based assay relative to control", "assay_type": "functional"}, "HEK293": {"system": "HEK293", "assay": "Cytotoxicity against HEK293 cells at 50 to 100 uM incubated for 48 hrs by MTT assay relative to control", "assay_type": "toxicity, cell-based", "details": "human, hek293, 48 h, dose 50-100 µM"}}, "note": "Calls of active or inactive are those of the source. The rule behind the calls is not given here.", "data": [{"compound": "O=C(O)c1cn(C2CC2)c2cc(N3CCNCC3)c(F)cc2c1=O", "note": "[CIPROFLOXACIN]", "values": [{"measurement": "Activity", "setting": "Pseudomonas aeruginosa [1]", "result": 109.5, "unit": "%"}, {"measurement": "Activity", "setting": "Pseudomonas aeruginosa [2]", "result": "inactive"}, {"measurement": "Activity", "setting": "[3]", "result": "Non-Toxic"}, {"measurement": "Activity", "setting": "Pseudomonas aeruginosa [4]", "result": 109.5, "unit": "%"}, {"measurement": "Activity", "setting": "Pseudomonas aeruginosa [5]", "result": 23.6, "unit": "%"}, {"measurement": "Activity", "setting": "HEK293", "result": 40, "unit": "%"}]}]}
